Data from article PMC3920478, “Small molecule-mediated refolding and activation of myosin motor function” (eLife, 2014).

Columns and labels:
Dd myosin-5 motor domain = molecular target: T1, Dd myosin-5 motor domain (Dictyostelium discoideum, UniProt P54697); test: Direct binding to motor domain construct
T1 sequence (P54697 1-821 limits assumed): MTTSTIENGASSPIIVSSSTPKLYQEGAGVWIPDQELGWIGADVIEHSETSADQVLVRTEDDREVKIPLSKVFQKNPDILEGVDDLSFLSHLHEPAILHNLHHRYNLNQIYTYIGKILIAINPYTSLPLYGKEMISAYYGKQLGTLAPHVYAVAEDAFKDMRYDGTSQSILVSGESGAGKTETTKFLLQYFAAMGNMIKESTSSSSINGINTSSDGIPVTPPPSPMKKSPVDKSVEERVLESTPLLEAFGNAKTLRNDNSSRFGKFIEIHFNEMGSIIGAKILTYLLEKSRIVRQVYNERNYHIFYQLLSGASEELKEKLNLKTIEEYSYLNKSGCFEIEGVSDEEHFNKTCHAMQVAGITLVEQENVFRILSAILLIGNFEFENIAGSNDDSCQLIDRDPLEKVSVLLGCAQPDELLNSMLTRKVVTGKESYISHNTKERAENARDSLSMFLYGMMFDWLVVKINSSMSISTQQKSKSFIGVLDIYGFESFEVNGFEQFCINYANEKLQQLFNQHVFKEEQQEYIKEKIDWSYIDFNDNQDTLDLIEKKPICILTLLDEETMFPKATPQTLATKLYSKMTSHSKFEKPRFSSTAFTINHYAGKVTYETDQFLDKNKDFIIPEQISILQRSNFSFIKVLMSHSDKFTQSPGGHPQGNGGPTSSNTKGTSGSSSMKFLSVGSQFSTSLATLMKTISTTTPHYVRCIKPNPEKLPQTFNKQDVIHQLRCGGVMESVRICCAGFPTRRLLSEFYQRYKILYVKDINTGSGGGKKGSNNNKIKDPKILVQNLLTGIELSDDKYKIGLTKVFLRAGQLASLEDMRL
Text: Proteolytic fragments were further purified by actin-coprecipitation.

[1] = molecular target: T2, Dd myosin-2 ΔSH3 (lacks residues 33–79) (Dictyostelium discoideum, UniProt P08799, DEL33-79); test: Direct binding to truncated construct; settings: construct lacks SH3-like β-barrel
T2 construct: Dd myosin-2 ΔSH3, a recombinant motor domain construct that lacks this subdomain; made in house
T2 sequence (P08799 other isoform, or with tags, fused parts or gaps DEL33-79): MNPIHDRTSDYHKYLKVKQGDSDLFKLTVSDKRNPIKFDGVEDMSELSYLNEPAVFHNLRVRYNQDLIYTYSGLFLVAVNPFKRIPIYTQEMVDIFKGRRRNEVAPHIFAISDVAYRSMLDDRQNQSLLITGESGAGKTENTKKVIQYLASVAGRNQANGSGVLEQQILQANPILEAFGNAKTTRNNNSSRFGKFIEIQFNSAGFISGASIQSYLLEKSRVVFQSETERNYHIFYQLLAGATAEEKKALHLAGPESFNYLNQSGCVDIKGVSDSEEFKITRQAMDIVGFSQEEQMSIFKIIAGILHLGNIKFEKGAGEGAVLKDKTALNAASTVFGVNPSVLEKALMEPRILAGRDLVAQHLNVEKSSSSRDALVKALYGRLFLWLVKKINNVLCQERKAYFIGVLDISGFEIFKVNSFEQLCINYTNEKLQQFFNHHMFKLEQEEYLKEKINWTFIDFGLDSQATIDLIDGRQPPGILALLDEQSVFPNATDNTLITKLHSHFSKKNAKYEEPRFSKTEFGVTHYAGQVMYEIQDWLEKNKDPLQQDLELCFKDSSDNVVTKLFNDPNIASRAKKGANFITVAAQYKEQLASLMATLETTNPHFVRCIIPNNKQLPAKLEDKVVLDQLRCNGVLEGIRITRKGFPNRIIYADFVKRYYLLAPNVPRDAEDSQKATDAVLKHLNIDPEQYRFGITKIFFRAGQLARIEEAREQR

[2] = molecular target: T3, Dd myosin-2 ΔSH3 (lacks residues 33–79) (Dictyostelium discoideum, UniProt P08799, DEL34-80); test: Steady-state basal and actin-activated Mg2+-ATPase (NADH-coupled assay); assay type: biochemical
T3 construct: Dd myosin-2 ΔSH3, a recombinant motor domain construct that lacks this subdomain; made in house
T3 sequence (P08799 other isoform, or with tags, fused parts or gaps DEL34-80): as the sequence (P08799 other isoform, or with tags, fused parts or gaps DEL33-79) above
Text: (§1) Initial blind docking to homology models of the β-cardiac myosin motor domain in the post-rigor state indicated preferred binding of the drug to a region near the small N-terminal, SH3-like βbarrel subdomain. Important contacts are predicted to involve the SH3-like subdomain (residues 34–72) and two α-helices (residues 20–28 and 98–111). […] The sets of binding poses differ mainly in the orientation of the dimethylated catechol group, occupying either of the two possible branches of the Y, while the thiadiazinone moiety appears little affected and resides in the root of the Y shaped cavity (Figure 2A,B). Potential residues involved in the binding of the thiadiazinone and tetrahydroquinoline moieties of the compound include Arg23, Asp85, Lys86, Asp107, Arg108, and Ser111. The dimethylated catechol moiety is mainly bound by residues Lys34, Lys48, and Gln79, and thus, interacts with the SH3-like β-barrel.
Basal and actin-activated Mg^2+-ATPase activities were measured using the NADH-coupled assay described previously ([Furch et al., 1998]) adapted for higher throughput screens for a temperature controlled plate reader (Multiscan FC, Thermo Scientific, Waltham, MA) at 25°C. EMD 57033 was added to the reaction mixture in the absence of nucleotide and incubated before the reaction was started by the addition of ATP. Control measurements were carried out in the absence of drug, as well as in the presence of according concentrations of the non-binding (−)-enantiomer EMD 57439 to account for possible absorption effects. […] Data points are mean values from 3 to 5 independent experiments. Error bars indicate standard deviations.

Dd myosin-2 ΔSH3 = molecular target: T4, Dd myosin-2 ΔSH3 (Dictyostelium discoideum, UniProt P08799, DEL33-79); test: In vitro motility assay (actin filament sliding); assay type: biochemical; settings: 100 µM EMD 57033
T4 construct: Dd myosin-2 ΔSH3, a recombinant motor domain construct that lacks this subdomain; made in house
T4 sequence (P08799 other isoform, or with tags, fused parts or gaps DEL33-79): as above
Text: as §1
Actin-sliding motility was performed at 20°C using an Olympus IX81 (Olympus, Hamburg, Germany) inverted fluorescence microscope as described previously ([Fujita-Becker et al., 2005]). Average sliding velocities were determined from the Gaussian distribution of automatically tracked actin filaments using DiaTrack 3.01 (Semasopht, Chavannes, Switzerland) and Origin 7.0 (OriginLab Corporation, Northampton, MA). Errors indicate standard deviations.

β-cardiac myosin = β-cardiac myosin (Sus scrofa, UniProt P79293); test: Transient kinetics (stopped-flow) of the ATPase cycle; assay type: biochemical, Porcine; design: β-Cardiac myosin-2 (S1, full-length); from tissue; host or cells: porcine cardiac muscle
β-cardiac myosin, sequence (P79293 whole entry): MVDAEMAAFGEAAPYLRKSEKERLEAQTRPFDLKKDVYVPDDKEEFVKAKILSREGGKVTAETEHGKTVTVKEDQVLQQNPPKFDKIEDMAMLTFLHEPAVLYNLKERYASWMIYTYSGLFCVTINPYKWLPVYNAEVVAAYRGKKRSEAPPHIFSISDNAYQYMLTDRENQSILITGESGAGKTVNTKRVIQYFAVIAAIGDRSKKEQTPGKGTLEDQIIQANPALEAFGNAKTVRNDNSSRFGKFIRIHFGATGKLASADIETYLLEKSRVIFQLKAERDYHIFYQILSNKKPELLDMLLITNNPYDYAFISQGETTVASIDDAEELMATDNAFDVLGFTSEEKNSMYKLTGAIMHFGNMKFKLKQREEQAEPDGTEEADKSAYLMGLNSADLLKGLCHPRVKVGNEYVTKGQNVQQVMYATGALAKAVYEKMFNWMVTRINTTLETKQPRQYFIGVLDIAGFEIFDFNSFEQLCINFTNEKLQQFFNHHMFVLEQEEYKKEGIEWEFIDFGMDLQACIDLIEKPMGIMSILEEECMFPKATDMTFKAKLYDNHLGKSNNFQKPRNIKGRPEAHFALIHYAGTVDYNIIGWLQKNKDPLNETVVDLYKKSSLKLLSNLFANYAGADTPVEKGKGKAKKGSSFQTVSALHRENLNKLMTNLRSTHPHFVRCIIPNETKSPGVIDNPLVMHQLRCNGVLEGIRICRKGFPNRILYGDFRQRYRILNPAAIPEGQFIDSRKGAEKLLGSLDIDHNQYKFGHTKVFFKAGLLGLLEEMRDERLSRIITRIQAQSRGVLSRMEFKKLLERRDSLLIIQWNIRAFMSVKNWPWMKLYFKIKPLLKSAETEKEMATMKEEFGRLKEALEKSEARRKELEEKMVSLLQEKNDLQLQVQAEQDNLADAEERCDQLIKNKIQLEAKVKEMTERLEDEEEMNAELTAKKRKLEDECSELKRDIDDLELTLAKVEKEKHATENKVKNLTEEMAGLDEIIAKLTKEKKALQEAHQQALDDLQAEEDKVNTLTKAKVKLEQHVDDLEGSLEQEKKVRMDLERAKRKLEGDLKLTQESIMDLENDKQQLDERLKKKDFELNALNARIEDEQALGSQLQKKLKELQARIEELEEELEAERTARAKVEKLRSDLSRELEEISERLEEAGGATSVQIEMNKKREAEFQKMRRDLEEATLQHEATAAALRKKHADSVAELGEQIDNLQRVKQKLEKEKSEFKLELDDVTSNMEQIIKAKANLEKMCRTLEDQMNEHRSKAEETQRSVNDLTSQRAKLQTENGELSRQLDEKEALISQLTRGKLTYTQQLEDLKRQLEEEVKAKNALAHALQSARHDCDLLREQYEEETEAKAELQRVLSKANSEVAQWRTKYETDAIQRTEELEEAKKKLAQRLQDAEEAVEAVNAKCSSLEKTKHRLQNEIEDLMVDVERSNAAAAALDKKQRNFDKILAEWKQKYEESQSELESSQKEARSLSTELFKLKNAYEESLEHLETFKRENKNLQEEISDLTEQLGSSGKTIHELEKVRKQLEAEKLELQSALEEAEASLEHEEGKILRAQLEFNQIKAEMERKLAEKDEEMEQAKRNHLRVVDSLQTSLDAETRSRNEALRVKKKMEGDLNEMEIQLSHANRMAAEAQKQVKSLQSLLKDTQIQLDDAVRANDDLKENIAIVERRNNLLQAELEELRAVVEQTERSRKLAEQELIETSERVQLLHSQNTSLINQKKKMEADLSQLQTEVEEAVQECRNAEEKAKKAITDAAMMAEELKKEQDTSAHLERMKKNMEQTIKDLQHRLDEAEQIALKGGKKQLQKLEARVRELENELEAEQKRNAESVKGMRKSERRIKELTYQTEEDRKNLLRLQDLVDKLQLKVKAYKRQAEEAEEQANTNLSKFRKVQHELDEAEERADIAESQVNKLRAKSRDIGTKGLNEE
Text: To gain a better understanding of its mechanism of action, we examined the effect of EMD 57033-binding on the kinetic activity of the myosin motor. […] Fast mixing of excess ATP with β-cardiac myosin results in an increase of the protein’s intrinsic tryptophan fluorescence. The kinetic model predicts the double exponential ‘behavior’ of the observed transients to be associated with two discrete processes (Figure 3C). The fast process corresponds to the binding of ATP to the active site. The rate of the slow process saturates at ATP concentrations above 100 µM and can be attributed to the ATP hydrolysis step ([Deacon et al., 2012]). […] Phosphate release is the rate-limiting step of the β-cardiac myosin actin-activated ATPase cycle. It can be monitored by the fluorescence increase that is associated with the much faster binding of phosphate to the A197C mutant of Escherichia coli phosphate binding protein, labeled at Cys197 with the thiol reactive coumarin dye MDCC ([Brune et al., 1994]) (Figure 3F). […] The resulting values for k+4 indicate a 1.7-fold increase in the presence of the small compound.
Stopped-flow experiments were performed using PiStar (Applied Photophysics, Leatherhead, UK) and Hi-Tech SF61 (TgK Scientific Limited, Bradford on Avon, UK) spectrophotometers at 20°C as described previously ([Taft et al., 2008]). Mant-nucleotides (Jena Bioscience, Germany) were excited at 365 nm and detected after passing through a KV 389 nm cut-off filter. Tryptophane fluorescence was excited at 297 nm and detected using a WG 320 nm cut-off filter. Long-time experiments were carried out using a shutter to avoid photo-bleaching. […] Phosphate release was measured using MDCC-PBP (N-[2-(1-maleimidyl)ethyl]-7-(diethylamino)coumarin-3-carboxamide fused to phosphate binding protein; obtained from Life Technologies, Carlsbad, CA) as described previously ([Brune et al., 1994]). Coumarin fluorescence was excited at 430 nm and detected using 455 nm cut-off-filter.

Structure (SMILES): COc1ccc(C(=O)N2CCCc3cc(C4=NNC(=O)SC4C)ccc32)cc1OC (stereo not drawn) [EMD 57033]
- Direct binding to the motor domain (Dd myosin-5 motor domain): Direct binding of EMD 57033 to the motor domain was observed
- Direct binding [1]: neither binding
- Normalized maximal ATPase activation (basal) [2]: no effect
- Normalized maximal ATPase activation (with 30 µM actin) ([2]; 30 µM actin): no effect
- ATPase / chemomechanical activation of the truncated construct ([2]; 100 µM EMD 57033): no significant activation
- Actin filament sliding velocity enhancement (Dd myosin-2 ΔSH3): no actin filament sliding velocity enhancement was observed
- Effect on ADP-release step (k−D, k−AD) (β-cardiac myosin): appears unaffected
- k+4 (phosphate release) (β-cardiac myosin; 25 µM EMD 57033, F-Actin 25 µM and 25 µM ATP, MDCC-PBP): 0.15 ± 0.01 s⁻¹
- k+2 ∼Change (−fold), increase (β-cardiac myosin; 25 µM EMD 57033 vs control): 3.8 fold
- k+4 ∼Change (−fold), increase (β-cardiac myosin; EMD 57033 vs control): 1.7 fold
- Net change in the rate of ATP turnover, single-turnover mantATP experiment (β-cardiac myosin; actin-activated β-cardiac myosin, 25 µM EMD 57033): approximately twofold net increase
- k+2 (conformational change after ATP binding) (β-cardiac myosin; in presence of 25 µM EMD 57033): 174 ± 7 s⁻¹
- k+3 + k−3 (rate of ATP hydrolysis) (β-cardiac myosin; in presence of 25 µM EMD 57033): 24.5 ± 1.9 s⁻¹
- k−AD (ADP release, with actin) (β-cardiac myosin; in presence of 25 µM EMD 57033): 26.9 ± 4 s⁻¹
- k−D (ADP release) (β-cardiac myosin; in presence of 25 µM EMD 57033): 0.16 ± 0.04 s⁻¹
